From US4708872A, “Antitumor antibiotic complex” (Bristol-Meyers Company, priority 1985, dated 1987)
Values joined by “and” are separate entries in the source; they are usually repeats but may differ in a detail not shown here. Identical values can stand only once. Like-named read-outs stand apart in the source and are kept apart here.

Experiments:
B16 melanoma = settings: qd 1-9 ip; dose of preceding T/C line
Method: (§1) Lymphocytic leukemia P-388, lymphoid leukemia L-1210, melanotic melanoma B16 and Lewis lung carcinoma were implanted intraperitoneally into male BDF1 mice at an inoculum size of 10^6, 10^5, 5×10^5 and 10^6 cells per mouse, respectively. Graded doses of test compounds were administered to the mice intraperitoneally 24 hours after the tumor inoculation.
(§2) Death or survival of the treated and non-treated mice was recorded daily, and the median survival time (MST) was calculated for each of the test (T) and control (C) groups. […] Second experiments were carried out by intravenous administration of BBM-1675 components against P-388 and L-1210 leukemias, which were inoculated intravenously at 5×10^5 and 10^4 cells per mouse, respectively.

L-1210 leukemia [1] = assay: Intravenously implanted L-1210 leukemia, iv treatment; settings: days 1,4,7 iv
L-1210 leukemia [2] = settings: days 1,4,7 iv; dose of preceding T/C line

Method for Lewis lung carcinoma: as §1, §2

SMILES	Survivors on day 5 (B16 melanoma)	Survivors on day 5 (Lewis lung carcinoma; mouse, in vivo, ip)	Survivors on day 5 (Lewis lung carcinoma; qd 1-11 ip, dose of preceding T/C line)	MST (L-1210 leukemia [1]; 16 mg/kg/day)	Survivors on day 5 (L-1210 leukemia [1]; 16 mg/kg/day)	Survivors on day 45 (L-1210 leukemia [1]; 16 mg/kg/day)	MST (L-1210 leukemia [1]; dose of preceding T/C line)	Survivors on day 5 (L-1210 leukemia [1]; dose of preceding T/C line)	MST (L-1210 leukemia [2]) [days]
CO[C@@H]1[C@H](O)C[C@@H](O[C@@H]2C[C@H](Oc3cc4cc5c(c(O)c4c(O)c3C)C(=O)[C@@H](O[C@H]3C[C@@H](O[C@H]4C[C@@H](O[C@H]6C[C@](C)(O)[C@@H](OC(C)=O)[C@H](C)O6)[C@H](O)[C@@H](C)O4)[C@H](O)[C@@H](C)O3)[C@H]([C@H](OC)C(=O)[C@@H](O)[C@@H](C)O)C5)O[C@H](C)[C@@H]2OC(C)=O)O[C@@H]1C [Chromomycin A3, chromomycin A3]	6/6	5/5	6/6	–	–	–	–	–	–
COc1cccc2c1C(=O)c1c(O)c3c(c(O)c1C2=O)C[C@@](O)(C(=O)CO)C[C@@H]3O[C@H]1C[C@H](N)[C@H](O)[C@H](C)O1 [Adriamycin, adriamycin]	–	–	–	tox.	2/6	0/6	12.0 days and 8.0 days	6/6	9.0
